One assay concerns the target T1, Nitric oxide synthase 3 (Bos taurus, UniProt P29473).
T1 sequence (P29473 whole entry): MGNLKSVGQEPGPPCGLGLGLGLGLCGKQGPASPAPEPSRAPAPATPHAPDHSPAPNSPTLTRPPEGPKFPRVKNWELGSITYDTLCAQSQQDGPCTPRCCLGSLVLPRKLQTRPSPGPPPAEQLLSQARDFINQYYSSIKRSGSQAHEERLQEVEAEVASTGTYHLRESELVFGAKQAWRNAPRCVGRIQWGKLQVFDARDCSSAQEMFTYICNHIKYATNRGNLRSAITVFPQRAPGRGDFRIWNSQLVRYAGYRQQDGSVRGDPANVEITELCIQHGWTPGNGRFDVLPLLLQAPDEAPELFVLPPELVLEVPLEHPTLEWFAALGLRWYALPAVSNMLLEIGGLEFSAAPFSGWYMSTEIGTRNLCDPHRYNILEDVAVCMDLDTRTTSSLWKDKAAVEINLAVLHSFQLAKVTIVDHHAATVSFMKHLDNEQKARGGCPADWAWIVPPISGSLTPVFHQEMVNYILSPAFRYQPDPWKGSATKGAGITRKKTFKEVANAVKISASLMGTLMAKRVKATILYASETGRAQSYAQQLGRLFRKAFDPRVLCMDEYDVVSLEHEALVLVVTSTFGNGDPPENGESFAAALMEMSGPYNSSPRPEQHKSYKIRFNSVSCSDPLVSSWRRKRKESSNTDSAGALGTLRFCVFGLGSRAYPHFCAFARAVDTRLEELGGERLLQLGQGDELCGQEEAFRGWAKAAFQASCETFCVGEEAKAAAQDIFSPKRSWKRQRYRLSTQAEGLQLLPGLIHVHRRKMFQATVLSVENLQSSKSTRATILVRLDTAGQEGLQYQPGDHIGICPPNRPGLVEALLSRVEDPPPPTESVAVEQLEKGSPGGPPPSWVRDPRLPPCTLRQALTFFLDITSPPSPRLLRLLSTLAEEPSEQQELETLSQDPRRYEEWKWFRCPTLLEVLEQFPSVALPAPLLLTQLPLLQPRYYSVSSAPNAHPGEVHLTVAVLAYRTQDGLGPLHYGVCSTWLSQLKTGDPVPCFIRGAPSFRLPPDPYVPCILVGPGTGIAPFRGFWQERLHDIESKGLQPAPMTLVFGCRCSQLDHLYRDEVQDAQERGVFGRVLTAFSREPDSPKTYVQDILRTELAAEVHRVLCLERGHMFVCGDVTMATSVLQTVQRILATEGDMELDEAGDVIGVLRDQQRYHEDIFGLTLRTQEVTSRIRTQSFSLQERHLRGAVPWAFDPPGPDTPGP

A short description of assay [1]: Selectivity ratio of Ki value of eNOS to nNOS.
Assay [2] can be described thus: Selectivity ratio of Ki value of iNOS to nNOS.
In another assay the target is Nitric oxide synthase 1 (Rattus norvegicus, UniProt P29476).
Nitric oxide synthase 1, sequence (P29476 whole entry): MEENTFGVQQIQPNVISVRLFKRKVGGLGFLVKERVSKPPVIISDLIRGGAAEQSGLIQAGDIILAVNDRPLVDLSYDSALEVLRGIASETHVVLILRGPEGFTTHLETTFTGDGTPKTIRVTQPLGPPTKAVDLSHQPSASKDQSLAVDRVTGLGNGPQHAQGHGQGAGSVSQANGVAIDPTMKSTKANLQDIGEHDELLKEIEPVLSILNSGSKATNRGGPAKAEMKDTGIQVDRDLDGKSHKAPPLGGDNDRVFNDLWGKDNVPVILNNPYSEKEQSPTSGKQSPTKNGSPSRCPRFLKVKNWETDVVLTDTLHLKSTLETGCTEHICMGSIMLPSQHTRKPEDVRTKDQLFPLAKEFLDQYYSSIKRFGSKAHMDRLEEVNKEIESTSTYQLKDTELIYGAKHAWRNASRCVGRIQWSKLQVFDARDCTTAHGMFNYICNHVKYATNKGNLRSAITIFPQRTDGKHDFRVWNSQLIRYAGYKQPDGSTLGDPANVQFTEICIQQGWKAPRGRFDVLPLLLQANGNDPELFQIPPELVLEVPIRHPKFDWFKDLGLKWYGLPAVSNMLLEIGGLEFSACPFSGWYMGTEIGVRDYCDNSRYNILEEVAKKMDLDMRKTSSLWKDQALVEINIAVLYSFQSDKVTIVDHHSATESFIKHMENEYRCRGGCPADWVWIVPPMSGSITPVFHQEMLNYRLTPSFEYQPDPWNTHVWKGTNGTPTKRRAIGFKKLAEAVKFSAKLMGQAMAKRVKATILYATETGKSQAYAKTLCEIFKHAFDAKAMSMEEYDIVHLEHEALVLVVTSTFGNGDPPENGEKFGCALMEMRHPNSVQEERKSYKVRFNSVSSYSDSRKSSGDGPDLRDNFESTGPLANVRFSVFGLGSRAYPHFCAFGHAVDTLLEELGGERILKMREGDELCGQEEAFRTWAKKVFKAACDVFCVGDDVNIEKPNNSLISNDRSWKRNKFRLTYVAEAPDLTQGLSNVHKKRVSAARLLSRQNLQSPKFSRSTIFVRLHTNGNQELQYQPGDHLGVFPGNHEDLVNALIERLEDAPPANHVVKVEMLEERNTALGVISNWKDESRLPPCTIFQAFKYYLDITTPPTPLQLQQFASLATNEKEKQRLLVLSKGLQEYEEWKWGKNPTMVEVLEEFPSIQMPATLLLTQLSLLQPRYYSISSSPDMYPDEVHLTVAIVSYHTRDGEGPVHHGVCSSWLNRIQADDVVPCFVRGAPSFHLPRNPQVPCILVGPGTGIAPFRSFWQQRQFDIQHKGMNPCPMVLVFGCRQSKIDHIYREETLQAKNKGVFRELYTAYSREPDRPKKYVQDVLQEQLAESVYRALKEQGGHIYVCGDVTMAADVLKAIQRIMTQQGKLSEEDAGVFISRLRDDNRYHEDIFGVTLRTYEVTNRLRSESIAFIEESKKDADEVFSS

Square brackets hold non-standard residues; d marks the D form. Peptide text beside a SMILES is read from it. dArg(NO2) = N=C(NCCC[C@@H](N)C(=O)O)N[N+](=O)[O-]

From ChEMBL document CHEMBL1136776, “Aromatic reduced amide bond peptidomimetics as selective inhibitors of neuronal nitric oxide synthase” (J Med Chem, 2003) come the findings set out here.

Description for Nitric oxide synthase 1: Inhibitory activity against Neuronal Nitric Oxide Synthase (nNOS)
Description for Nitric oxide synthase 3: Inhibitory activity against endothelial nitric oxide synthase (eNOS)

As for `N=C(NCCC[C@H](N)CNCCc1ccccn1)N[N+](=O)[O-]`, at Nitric oxide synthase 3, the Ki worked out at 123 µM. For the compound `NCc1ccccc1NC[C@@H](N)CCC/N=C(\N)N[N+](=O)[O-]`, the Selectivity in assay [1] turned out to be 7.17; in assay [2], 5.28.

As for `N/C(=N\CCC[C@H](N)CNc1cccc(N)c1)N[N+](=O)[O-]`, the Selectivity in assay [1] stood at 36; in assay [2], 127. For `N/C(=N\CCC[C@H](N)CNc1ccc(N)cc1)N[N+](=O)[O-]` the same measures were 51 and 149.

Turning to `N/C(=N\CCC[C@H](N)CNCCc1cccc(N)c1)N[N+](=O)[O-]`, the Selectivity is 35 in assay [1] and 122 in assay [2]. The like results for `N/C(=N\CCC[C@H](N)CNCc1cccnc1)N[N+](=O)[O-]` were, in that order, 951 and 256.

Take `NCCCC[C@@H](N)C(=O)N[C@H](CCC/N=C(/N)N[N+](=O)[O-])C(N)=O` (H-[dK]-[dArg(NO2)]-NH2): the Ki on Nitric oxide synthase 1 was found to be 0.89 µM. On Nitric oxide synthase 3, `N=C(NCCC[C@H](N)CNCCc1ccncc1)N[N+](=O)[O-]` showed a Ki of 193 µM. Regarding `COC(=O)[C@@H](CCCNC(=N)N[N+](=O)[O-])NC(=O)[C@H](N)Cc1ccccc1` (H-[dF]-[dArg(NO2)]-OMe), the Selectivity in assay [1] was 2.5; in assay [2], 1800. This compound also displayed a Ki at Nitric oxide synthase 1 of 2 µM. Regarding `NCc1ccc(NC[C@@H](N)CCC/N=C(\N)N[N+](=O)[O-])cc1`, the Selectivity in assay [1] amounted to 299; in assay [2], 245. The like results for `N/C(=N\CCC[C@H](N)CNCCc1ccc(N)cc1)N[N+](=O)[O-]` were, in that order, 230 and 458. The like results for `N/C(=N\CCC[C@H](N)CNCCc1ccccc1N)N[N+](=O)[O-]` were, in that order, 22.1 and 135.

The term Ki denotes the dissociation constant of the complex between target and ligand, obtained from inhibition or displacement. A low value points to higher affinity.
